Measured values published in PMC12589546, “A plastid carbohydrate carrier mediates ribose recycling from nucleotide catabolism and glucose export from starch degradation” (Nature Communications, 2025).

Target: T1, At-pGlcT (At-pGlcTNTD) (Arabidopsis thaliana, UniProt B9DGP1)
T1 construct: gene At5g16150; plastid transit peptide (residues 1-82) replaced by E. coli PhoR residues 1-54 (membrane-targeting NTD); C-terminal 6xHis tag kept; expressed in E. coli sugar-uptake mutants, intact-cell uptake
T1 sequence (B9DGP1 83-546): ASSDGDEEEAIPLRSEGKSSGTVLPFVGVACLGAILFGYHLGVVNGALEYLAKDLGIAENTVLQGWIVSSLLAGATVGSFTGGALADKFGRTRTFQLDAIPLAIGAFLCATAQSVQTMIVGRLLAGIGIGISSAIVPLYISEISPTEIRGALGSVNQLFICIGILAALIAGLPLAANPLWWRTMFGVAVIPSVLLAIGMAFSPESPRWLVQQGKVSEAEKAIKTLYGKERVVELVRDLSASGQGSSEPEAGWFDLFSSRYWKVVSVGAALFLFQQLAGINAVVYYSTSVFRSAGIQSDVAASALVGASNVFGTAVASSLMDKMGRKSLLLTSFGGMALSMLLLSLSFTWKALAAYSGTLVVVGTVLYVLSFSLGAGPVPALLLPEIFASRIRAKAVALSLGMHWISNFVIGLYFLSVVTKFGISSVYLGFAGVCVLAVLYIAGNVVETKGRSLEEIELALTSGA
Experiment: competition with […]-ribose uptake in E. coli ΔrbsC ΔxylH ΔalsC
Format: cell-based
Conditions: 1 mM 14C-ribose, 10 mM unlabelled sugar, pH 7, 37 °C, 30 min, competitive

Row | Structure (SMILES) | inhibition of 14C-ribose uptake at 10 mM (14C-glucose uptake also measured) | inhibition of 14C-ribose uptake at 10 mM (3H-fructose uptake also measured)
1 | OC[C@H]1OC(O)[C@H](O)[C@@H](O)[C@@H]1O (some centres unmarked) [glucose] | but also glucose was an equally efficient suppressor | 
2 | OCC1(O)OC[C@@H](O)[C@@H](O)[C@@H]1O (some centres unmarked) [fructose] |  | its presence also reduced the uptake of the radioactively labeled ribose
